Our source for the IC50 values is patent US9469642B2, “Purinone compounds as kinase inhibitors” (Pharmacyclics LLC, priority 2012, dated 2016).

What all share (assay type): biochemical
One test concerns the target T1, BTK (Homo sapiens, UniProt Q06187).
T1 construct: purified from insect cells as a full-length construct containing a N-terminal 6×-His tag; His6 (N); host or cells: insect cells (baculovirus Sf21)
The test can be described thus: Btk in vitro inhibitory activity (kinase assay by one of Methods A, B or C). On the procedure: (§1) Btk kinase activity is determined using a time-resolved fluorescence resonance energy transfer (TR-FRET) methodology. Measurements are performed in a reaction volume of 50 μL using 96-well assay plates. Kinase enzyme, inhibitor, ATP (at the Km for the kinase), and 1 peptide substrate (Biotin-AVLESEEELYSSARQ-NH2) are incubated in a reaction buffer composed of 20 mM Tris, 50 mM NaCl, MgCl2 (5-25 mM depending on the kinase), MnCl2 (0-10 mM), 1 mM DTT, 0.1 mM EDTA, 0.01% bovine serum albumin, 0.005% Tween-20, and 10% DMSO at pH 7.4 for one hour. The reaction is quenched by the addition of 1.2 equivalents of EDTA (relative to divalent cation) in 25 μL of 1× Lance buffer (Perkin-Elmer). Streptavidin-APC (Perkin-Elmer) and Eu-labeled p-Tyr100 antibody (Perkin-Elmer) in 1× Lance buffer are added in a 25 μL volume to give final concentrations of 100 nM and 2.5 nM, respectively, and the mixture is allowed to incubate for one hour. The TR-FRET signal is measured on a multimode plate reader with an excitation wavelength (λEx) of 330 nm and detection wavelengths (λEm) of 615 and 665 nm. Activity is determined by the ratio of the fluorescence at 665 nm to that at 615 nm. For each compound, enzyme activity is measured at various concentrations of compound. Negative control reactions are performed in the absence of inhibitor in replicates of six, and two no-enzyme controls are used to determine baseline fluorescence levels. Inhibition constants, Ki(app), were obtained using the program BatchKi (Kuzmic et al. (2000), Anal. Biochem. 286:45-50). IC50s are obtained according to the equation: IC50=[…]+[E]total/2;
(§2) For all kinases, [ATP]=Km^ATP, [Btk]total=0.5 nM and [Lck]total=6 nM.
(§3) Kinase activity is measured in vitro using electrophoretic mobility shift assay. The kinase reactions are assembled in a total volume of 25 μL in 384 well plates. The reactions comprise: BTK enzyme (1 nM, N-terminal His6-tagged, recombinant, full-length, human BTK purified from baculovirus Sf21 insect cell system), inhibitor, ATP (16 μM, the apparent Km for the kinase), fluorescently labeled peptide substrate (1 μM, FAM-GEEPLYWSFPAKKK-NH2) in a reaction buffer composed of 100 mM HEPES, pH7.5, 5 mM MgCl2 1 mM DTT, 0.1% bovine serum albumin, 0.01% Triton X-100, and 1% DMSO. The reaction is incubated for one hour and is quenched by the addition of 45 μL of termination buffer (100 mM HEPES, pH7.5, 0.01% Triton X-100, 30 mM EDTA). The terminated reactions are analyzed using 12 channel LabChip® 3000 microfluidic detection instrument (Caliper Life Sciences). The enzymatic phosphorylation of the peptide results in a change in net charge, enabling electrophoretic separation of product from substrate peptide. As substrate and product peptides are separated, two peaks of fluorescence are observed. Change in the relative fluorescence intensity of the substrate and product peaks is the parameter measured, reflecting enzyme activity. In the presence of an inhibitor, the ratio between product and substrate is altered:the signal of the product decreases, while the signal of the substrate increases.
(§4) Activity in each sample is determined as the product to sum ratio (PSR):P/(S+P), where P is the peak height of the product peptide and S is the peak height of the substrate peptide. For each compound, enzyme activity is measured at various concentrations (12 concentrations of compound spaced by 3× dilution intervals). Negative control samples (0%-inhibition in the absence of inhibitor) and positive control samples (100%-inhibition, in the presence of 20 mM EDTA) are assembled in replicates of four and are used to calculate %-inhibition values for each inhibitor at each concentration. Percent inhibition (Pinh) is determined using following equation: […]

The target of a further test is EGFR (Homo sapiens, UniProt P00533). Description: Kinase panel inhibition, EGFR (one of the methods of Example 76a, 76b, 76c). On the procedure: as §1, §2, §3, §4
Sequence of EGFR (P00533 25-1210, species assumed): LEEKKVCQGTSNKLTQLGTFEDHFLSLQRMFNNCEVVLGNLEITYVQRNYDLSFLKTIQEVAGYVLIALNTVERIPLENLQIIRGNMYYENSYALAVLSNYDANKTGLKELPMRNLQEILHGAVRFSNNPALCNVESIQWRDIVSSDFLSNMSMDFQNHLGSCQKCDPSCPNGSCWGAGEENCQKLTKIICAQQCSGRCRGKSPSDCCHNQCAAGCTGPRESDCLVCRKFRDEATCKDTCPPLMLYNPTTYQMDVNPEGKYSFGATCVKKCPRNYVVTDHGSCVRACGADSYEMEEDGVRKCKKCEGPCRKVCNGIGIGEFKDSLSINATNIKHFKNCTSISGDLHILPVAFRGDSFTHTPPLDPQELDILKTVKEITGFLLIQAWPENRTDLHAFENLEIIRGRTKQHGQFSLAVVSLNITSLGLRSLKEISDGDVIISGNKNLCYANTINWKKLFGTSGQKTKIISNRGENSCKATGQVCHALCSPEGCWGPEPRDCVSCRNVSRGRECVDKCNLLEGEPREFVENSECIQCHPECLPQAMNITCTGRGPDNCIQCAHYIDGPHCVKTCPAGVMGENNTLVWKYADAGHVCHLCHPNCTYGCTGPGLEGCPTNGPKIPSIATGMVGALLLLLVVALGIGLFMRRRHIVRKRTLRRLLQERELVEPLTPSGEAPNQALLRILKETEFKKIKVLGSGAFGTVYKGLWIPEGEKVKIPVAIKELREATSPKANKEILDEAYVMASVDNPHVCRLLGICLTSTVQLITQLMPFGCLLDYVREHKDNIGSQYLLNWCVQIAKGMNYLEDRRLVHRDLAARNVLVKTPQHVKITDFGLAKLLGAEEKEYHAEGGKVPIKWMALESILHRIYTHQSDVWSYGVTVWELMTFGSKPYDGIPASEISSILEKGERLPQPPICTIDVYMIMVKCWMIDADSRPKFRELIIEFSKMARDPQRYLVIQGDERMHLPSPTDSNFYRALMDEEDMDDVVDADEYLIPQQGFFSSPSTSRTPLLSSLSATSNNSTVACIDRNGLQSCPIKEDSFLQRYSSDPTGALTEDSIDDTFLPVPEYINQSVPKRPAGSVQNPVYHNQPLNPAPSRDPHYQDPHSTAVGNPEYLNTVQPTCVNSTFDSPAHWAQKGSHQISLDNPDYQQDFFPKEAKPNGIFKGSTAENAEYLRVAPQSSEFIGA
The next test deals with LCK (Homo sapiens, UniProt P06239). Description: Kinase panel inhibition, LCK (one of the methods of Example 76a, 76b, 76c). On the procedure: as §1, §2, §3, §4
Sequence of LCK (P06239 whole entry, species assumed): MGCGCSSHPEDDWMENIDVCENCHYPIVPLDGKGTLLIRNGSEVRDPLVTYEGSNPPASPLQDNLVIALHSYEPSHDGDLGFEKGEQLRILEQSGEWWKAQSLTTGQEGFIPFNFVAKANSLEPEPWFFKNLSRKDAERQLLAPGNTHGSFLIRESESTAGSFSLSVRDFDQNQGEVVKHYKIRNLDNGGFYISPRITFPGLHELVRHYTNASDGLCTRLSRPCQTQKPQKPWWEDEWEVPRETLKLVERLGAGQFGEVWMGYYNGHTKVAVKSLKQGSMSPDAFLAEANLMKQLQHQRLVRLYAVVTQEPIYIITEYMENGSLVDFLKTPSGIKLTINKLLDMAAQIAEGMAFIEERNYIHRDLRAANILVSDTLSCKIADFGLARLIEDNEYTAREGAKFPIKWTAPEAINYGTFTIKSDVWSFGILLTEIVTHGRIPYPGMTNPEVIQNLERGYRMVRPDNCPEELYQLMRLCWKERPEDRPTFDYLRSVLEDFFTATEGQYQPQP

SMILES strings stand for the structures.

T1 sequence (Q06187 whole entry): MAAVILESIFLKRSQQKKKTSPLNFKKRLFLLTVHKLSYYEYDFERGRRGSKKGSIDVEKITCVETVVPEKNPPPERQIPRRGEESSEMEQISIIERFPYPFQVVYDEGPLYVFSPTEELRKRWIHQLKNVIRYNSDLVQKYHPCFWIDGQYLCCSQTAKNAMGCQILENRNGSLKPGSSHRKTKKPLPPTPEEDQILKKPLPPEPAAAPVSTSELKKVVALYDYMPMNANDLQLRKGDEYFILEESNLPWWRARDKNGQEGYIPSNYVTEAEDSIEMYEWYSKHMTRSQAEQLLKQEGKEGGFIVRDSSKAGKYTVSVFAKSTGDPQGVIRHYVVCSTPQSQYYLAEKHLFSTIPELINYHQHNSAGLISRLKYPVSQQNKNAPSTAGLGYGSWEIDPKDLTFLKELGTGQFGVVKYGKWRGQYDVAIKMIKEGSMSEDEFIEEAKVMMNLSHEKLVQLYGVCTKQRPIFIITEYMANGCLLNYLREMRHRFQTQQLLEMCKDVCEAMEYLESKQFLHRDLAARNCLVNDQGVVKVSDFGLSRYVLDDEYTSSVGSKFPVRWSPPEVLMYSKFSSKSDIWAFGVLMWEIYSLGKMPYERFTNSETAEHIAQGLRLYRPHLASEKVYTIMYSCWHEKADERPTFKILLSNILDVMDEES

Broadly, the IC50 is the concentration that gives 50% inhibition. Read a low IC50 as inhibition by little substance. `COc1cc(-n2c(=O)n(-c3cccc(N(C)C(=O)/C=C/CN(C)C)c3)c3ncnc(N)c32)ccc1C` [Compound 30, (E)-N-(3-(6-amino-7-(3-methoxy-4-methylphenyl)-8-oxo-7H-purin-9(8H)-yl)phenyl)-4-(dimethylamino)-N-methylbut-2-enamide]: the 50% inhibitory concentration (IC50) against BTK is below 100 nM; at EGFR, above 10000 nM; against LCK it was above 10000 nM.
Consider `CN(C)C/C=C/C(=O)N(C)c1cccc(-n2c(=O)n(-c3ccc(Oc4ccccc4)cc3)c3c(N)ncnc32)c1` [Compound 33, (E)-N-(3-(6-amino-8-oxo-7-(4-phenoxyphenyl)-7H-purin-9(8H)-yl)phenyl)-4-(dimethylamino)-N-methylbut-2-enamide], for which the IC50 against BTK is below 100 nM; on EGFR, 100 to 1000 nM; against LCK, 1000 to 10000 nM.
The like results for `CN(C(=O)/C=C/CN(C)C1CC1)c1cccc(-n2c(=O)n(-c3ccc(Oc4ccccc4)cc3)c3c(N)ncnc32)c1` [Compound 34, (E)-N-(3-(6-amino-8-oxo-7-(4-phenoxyphenyl)-7H-purin-9(8H)-yl)phenyl)-4-(cyclopropyl(methyl)amino)-N-methylbut-2-enamide] were, in that order, below 100 nM, 100 to 1000 nM and 1000 to 10000 nM.
The like results for `CN(C)C/C=C/C(=O)N(C)c1ccc(-n2c(=O)n(-c3ccc(Oc4ccccc4)cc3)c3c(N)ncnc32)cc1` [Compound 43, (E)-N-(4-(6-amino-8-oxo-7-(4-phenoxyphenyl)-7H-purin-9(8H)-yl)phenyl)-4-(dimethylamino)-N-methylbut-2-enamide] were, in that order, below 100 nM, 1000 to 10000 nM and 100 to 1000 nM.
Regarding `CN(C(=O)/C=C/CN(C)C1CC1)c1ccc(-n2c(=O)n(-c3ccc(Oc4ccccc4)cc3)c3c(N)ncnc32)cc1` [Compound 44, (E)-N-(4-(6-amino-8-oxo-7-(4-phenoxyphenyl)-7H-purin-9(8H)-yl)phenyl)-4-(cyclopropyl(methyl)amino)-N-methylbut-2-enamide], the half-inhibitory concentration (IC50) on BTK was below 100 nM; against EGFR, 1000 to 10000 nM; against LCK it was 100 to 1000 nM.
For `CN(C(=O)/C=C/CN(C)C1CCC1)c1ccc(-n2c(=O)n(-c3ccc(Oc4ccccc4)cc3)c3c(N)ncnc32)cc1` [Compound 45, (E)-N-(4-(6-amino-8-oxo-7-(4-phenoxyphenyl)-7H-purin-9(8H)-yl)phenyl)-4-(cyclobutyl(methyl)amino)-N-methylbut-2-enamide], the IC50 is below 100 nM at BTK, 1000 to 10000 nM on EGFR and 100 to 1000 nM at LCK.
`CN(C)C/C=C/C(=O)N(C)c1ccc(-n2c(=O)n(-c3ccc(Cl)cc3)c3c(N)ncnc32)cc1` [Compound 48, (E)-N-(4-(6-amino-7-(4-chlorophenyl)-8-oxo-7H-purin-9(8H)-yl)phenyl)-4-(dimethylamino)-N-methylbut-2-enamide]: the figures for the IC50 at BTK, at EGFR and against LCK were 100 to 1000 nM, above 10000 nM and 1000 to 10000 nM, respectively.
As for `CN(C(=O)/C=C/CN(C)C1CC1)c1ccc(-n2c(=O)n(-c3ccc(Cl)cc3)c3c(N)ncnc32)cc1` [Compound 49, (E)-N-(4-(6-amino-7-(4-chlorophenyl)-8-oxo-7H-purin-9(8H)-yl)phenyl)-4-(cyclopropyl(methyl)amino)-N-methylbut-2-enamide], the IC50 was 100 to 1000 nM against BTK, above 10000 nM on EGFR and 1000 to 10000 nM at LCK.
Take `CN(C(=O)/C=C/CN(C)C1CCC1)c1ccc(-n2c(=O)n(-c3ccc(Cl)cc3)c3c(N)ncnc32)cc1` [Compound 50, (E)-N-(4-(6-amino-7-(4-chlorophenyl)-8-oxo-7H-purin-9(8H)-yl)phenyl)-4-(cyclobutyl(methyl)amino)-N-methylbut-2-enamide]: the IC50 at BTK is 100 to 1000 nM; against EGFR, above 10000 nM; on LCK, 1000 to 10000 nM.
With `C=CC(=O)N(C)c1ccc(-n2c(=O)n(-c3ccc(Cl)cc3)c3c(N)ncnc32)cc1` [Compound 51, N-(4-(6-amino-7-(4-chlorophenyl)-8-oxo-7H-purin-9(8H)-yl)phenyl)-N-methylacrylamide], the values for the 50% inhibitory concentration (IC50) against BTK, on EGFR and on LCK were below 100 nM, 100 to 1000 nM and 1000 to 10000 nM, respectively.
Take `COc1cc(-n2c(=O)n(-c3ccc(N(C)C(=O)/C=C/CN(C)C)cc3)c3ncnc(N)c32)ccc1C` [Compound 54, (E)-N-(4-(6-amino-7-(3-methoxy-4-methylphenyl)-8-oxo-7H-purin-9(8H)-yl)phenyl)-4-(dimethylamino)-N-methylbut-2-enamide]: the IC50 at BTK was below 100 nM; on EGFR, 1000 to 10000 nM; against LCK, 1000 to 10000 nM.
In the case of `C=CC(=O)N(C)c1ccc(-n2c(=O)n(-c3ccc(C)c(OC)c3)c3c(N)ncnc32)cc1` [Compound 55, N-(4-(6-amino-7-(3-methoxy-4-methylphenyl)-8-oxo-7H-purin-9(8H)-yl)phenyl)-N-methylacrylamide], the figures for the half-inhibitory concentration (IC50) at BTK, at EGFR and on LCK were below 100 nM, 1000 to 10000 nM and 1000 to 10000 nM, respectively.
Take `CN(C/C=C/C(=O)N1CC[C@@H](n2c(=O)n(-c3ccc(Oc4ccccc4)cc3)c3c(N)ncnc32)C1)C1CC1` [Compound 63, (R,E)-6-amino-9-(1-(4-(cyclopropyl(methyl)amino)but-2-enoyl)pyrrolidin-3-yl)-7-(4-phenoxyphenyl)-7H-purin-8(9H)-one]: the IC50 against BTK is below 100 nM; at EGFR it was 1000 to 10000 nM; against LCK, 100 to 1000 nM.
For the compound `CN(C/C=C/C(=O)N1CC[C@@H](n2c(=O)n(-c3ccc(Oc4ccccc4)cc3)c3c(N)ncnc32)C1)C1CCC1` [Compound 64, (R,E)-6-amino-9-(1-(4-(cyclobutyl(methyl)amino)but-2-enoyl)pyrrolidin-3-yl)-7-(4-phenoxyphenyl)-7H-purin-8(9H)-one], the IC50 was below 100 nM at BTK, 1000 to 10000 nM at EGFR and 100 to 1000 nM against LCK.
In the case of `CN(C)C/C=C/C(=O)N1CC[C@@H](n2c(=O)n(-c3ccc(Cl)cc3)c3c(N)ncnc32)C1` [Compound 67, (R,E)-6-amino-7-(4-chlorophenyl)-9-(1-(4-(dimethylamino)but-2-enoyl)pyrrolidin-3-yl)-7H-purin-8(9H)-one], the IC50 on BTK is 100 to 1000 nM; on EGFR it was above 10000 nM; at LCK, 1000 to 10000 nM.
The like results for `CN(C)C/C=C/C(=O)N1CCC(Cn2c(=O)n(-c3ccc(Oc4ccccc4)cc3)c3c(N)ncnc32)CC1` [Compound 75, (E)-6-amino-9-((1-(4-(dimethylamino)but-2-enoyl)piperidin-4-yl)methyl)-7-(4-phenoxyphenyl)-7H-purin-8(9H)-one] were, in that order, below 100 nM, 1000 to 10000 nM and 100 to 1000 nM.
As for `COc1cc(-n2c(=O)n([C@@H]3CCN(C(=O)/C=C/CN(C)C)C3)c3ncnc(N)c32)ccc1C` [Compound 81, (R,E)-6-amino-9-(1-(4-(dimethylamino)but-2-enoyl)pyrrolidin-3-yl)-7-(3-methoxy-4-methylphenyl)-7H-purin-8(9H)-one], the results for the IC50 at BTK, on EGFR and on LCK were below 100 nM, above 10000 nM and 1000 to 10000 nM, respectively.
